melting point [°C]	SMILES
> 260	O=C1CCC(N2C(=O)c3cccc(CNC(=O)c4cnc5ccccc5n4)c3C2=O)C(=O)N1 (configuration not stated)
256 to 258	CNC(=O)c1ccccc1Nc1nc(Nc2cc3c(cc2OC)CCOC(=O)N3C)ncc1Cl
126	O=C(NCCc1ccc(Cl)cc1)C1Cc2ccccc2N1S(=O)(=O)c1ccc(-c2ccc(F)cc2)cc1 (configuration not stated)
128 to 130	CN1CCc2c(c3ccccc3n2CCc2nc(-c3ccccc3)cs2)C1
238 to 240	CCOCc1nc2c(N)nc3cc(Cl)ccc3c2n1CC(C)(C)O
244 to 246	O=C1CN(c2ncc3ncnc(Nc4ccc(F)c(Cl)c4)c3n2)CCN1
174 to 177	COC(=O)COc1c2c(cc3c1c1c(C(N)=O)cccc1n3Cc1ccccc1)CCCC2
163 to 164	CSc1ccc(CC2C(C)=C(CCN(O)C(N)=O)c3ccccc32)cc1 (configuration not stated)
167 to 170	O=C(Cc1ccc(Oc2ccc(C(F)(F)F)cn2)cc1)Nc1ccncc1
58 to 60	Nc1sc2c(c1C(=O)c1cccc(CF)c1)CCN(Cc1ccccc1)C2
143 to 146	Cc1cccc2nc3c(cc12)sc1cccc(Cl)c13
182 to 183	O=Cc1cnc2sc3cc(F)ccc3n12
224 to 227	NC(=O)CCN1C(=O)[C@@H](CC(=O)NCCc2ccc(Br)cc2)S[C@H]1c1ccc(C#Cc2ccccc2)s1 (relative stereo)
140 to 142	CCOC(=O)COc1c(Br)cc(-c2cccc3sc4ccccc4c23)cc1Br
171 to 172	COc1ccc(NC(=O)c2ccc(F)cc2)cc1
210	Cc1c(-c2ccc3oc(=O)n(C)c3c2)nc2c(OCc3ccccc3)cccn12
138 to 141	Cc1c(-c2ccccc2)c(N2CC[C@H](N(C)C)C2)c2oc(C(=O)N(C)CCc3ccccc3)nc2c1C#N
48 to 50	CC(C)CC=Cc1c(C(C)C)nc(C(C)C)c(CO)c1-c1ccc(F)cc1

melting point [°C]	SMILES
149 to 150	CCCCCCCC(=O)OC(=C1C(=O)N(C(N)=O)c2cc(Cl)c(F)cc21)c1cccs1
72 to 74	COc1cccc2c1Sc1cc(Cl)ccc1C2
148	O=C(N[C@@H]1CCN(CCNc2ncccn2)C[C@H]1O)c1cccc(C(F)(F)F)c1 (relative stereo)
185 to 187	O=C(O)CCCCCc1c(-c2cccnc2)[nH]c2ccc(O)cc12
160 to 163	COc1ccc(CNc2nc(N3CCC[C@H]3CO)ncc2C(=O)NCc2ncccn2)cc1Cl
80 to 81	COC(=O)SC1C2=C(CCCC2)C(=O)N1c1ccc(Cl)cc1F (configuration not stated)
119	CCOc1ccc(-c2ccc(C3COC(c4c(F)cccc4F)=N3)cc2)cn1 (configuration not stated)
271 to 272	O=C(Nc1ccc2[nH]nnc2c1)N1CCN(c2nc(-c3ccccc3)ns2)CC1
204	CC(C)N1CCc2[nH]c3ccc4scc(-c5ccccc5)c4c3c2C1
> 300	Fc1ccc(-c2[nH]cc(-c3c(F)c(F)nc(F)c3F)c2-c2ccncc2)cc1
192 to 193	COc1ccc2c(cc3n2Cc2ccccc2-3)n1
233 to 235	Cc1ccc(S(=O)(=O)OC[C@H]2COc3cc(C)c4c(c3O2)CC(=O)N4)cc1
139 to 141	O=C1c2ccccc2C(=O)N1CCC=Cc1csc(-c2ccccn2)n1
160 to 162	CC#CC(Cc1ccccc1)n1nnc2cc3c(cc2c1=O)OC1CCCN1C3=O (configuration not stated)
66 to 69	Cc1nc(N2C[C@@H](C)N(Cc3ccc(F)cc3)C2=O)sc1C(=O)NCc1cncs1
141 to 144	CN(Cc1ccc(C(=O)O)cc1)c1ccc2c(c1)C(C)(C)CCC2(C)C
230 to 231	O=C(O)c1cccc(-c2nc(-c3ccc(C(F)(F)F)cc3)cs2)c1
158 to 162	CCOC(=O)c1ccc(NCCOc2ccc3ccccc3c2)cc1

More lines, now with the values behind:

SMILES	melting point [°C]
Nc1cc(-n2cccc2)ccc1Nc1cccc(-n2ccnc2)c1	207 to 212
CC[C@H](CC[N+](=O)[O-])C(=O)N[C@@H](Cc1ccccc1)C(=O)OC	86.2 to 87.8
O=C1CCCc2c(O)cccc2N1	244 to 245
CCc1ccnc2c([N+](=O)[O-])cc(OC)cc12	158 to 159
CCCCCCCCCCCCCCCCCCOc1cc(NC(=O)OCc2ccccc2)cc(OCCCCC(=O)OC)c1	59 to 62
Cc1c(Br)c2c(c(C)c1NC(=O)OC(C)(C)C)CC(C)(C)O2	115 to 117
CC(C)(C)OC(=O)NNc1ccc(N)cc1	128
O=c1[nH]c(=S)[nH]cc1-c1ccccc1	269 to 271
CCCCCCOC1CCC(=O)N1 (configuration not stated)	35 to 37
CN(Cc1ccc([N+](=O)[O-])cc1)C1CCN(c2ccc([N+](=O)[O-])cc2)CC1	119 to 120
CC(O)CN1CCN(c2cccc3c2OCCO3)CC1 (configuration not stated)	92
CCCCCc1cc2c(nc(O)n2CC2CCN(S(C)(=O)=O)CC2)c(N)n1	228 to 231
COc1ccccc1OCC1SCCN1S(C)(=O)=O (configuration not stated)	118 to 120
CC(C)Cc1ccc(CCCCc2cc3c(s2)NC(=S)CN=C3c2ccccc2Cl)cc1	133 to 135
O=C(O)CN1CC(NC(=O)Cc2ccccc2)C1=O (configuration not stated)	144 to 145
CCCCCCCCC(SCCCCCC)C(=O)Nc1c(SC)ccc2ncccc12 (configuration not stated)	91 to 92
CC#CCOc1cc(-n2nnn(CCC)c2=O)c(Cl)cc1Cl	58 to 60
COc1ccc(CNCCCOc2ccc(S(=O)(=O)c3c(C(C)C)cn4ccccc34)cc2)cc1OC	109 to 111

SMILES	melting point [°C]
CSCc1ccccc1S(N)(=O)=O	119 to 124
COc1ccc2c(c1)Cc1c-2[nH]c2ccc(OCc3ccccc3)cc12	189 to 193
CN(C)C=CC(=O)c1ccc(-c2ccc(N(c3ccccc3)c3ccccc3)cc2)cc1	166 to 167
CCCCCN(CCCCC)C(=O)C(CCC(=O)OC)CS(=O)c1ccc(Cl)c(Cl)c1 (configuration not stated)	64 to 65
CNCC1Cc2cc(Cl)cc(C3CCCCC3)c2O1 (configuration not stated)	125 to 128
CN1CCN(c2ccc([N+](=O)[O-])c(C(=O)O)c2)CC1	212
CNS(=O)(=O)NC(C)C	50 to 52
CN1C(=O)[C@@H](NC(=O)C=Cc2ccccc2)N=C(c2ccccc2)c2ccccc21	126 to 140
CC(C)c1nc(CN(C)C(=O)NC(C(=O)NC(Cc2ccccc2)CC(O)C(Cc2ccccc2)NC(=O)OCc2ccno2)C(C)C)cs1 (configuration not stated)	60 to 62
O=C(Nc1ccc(N(Cc2ccccc2)C(=O)OCc2ccccc2)c(F)c1)OCc1ccccc1	101 to 102
CC(=O)NCCCCCC(=O)N1CC1C#N (configuration not stated)	74 to 77
O=c1ncc(Br)cn1CC=CCl	114 to 116
CN(C)c1ccc2cc(Cl)cnc2c1C#N	174
N#CCN(CC#N)c1nc(Cl)nc(Cl)n1	154 to 158
Cc1cccc(C)c1N(C)C(=O)Cl	79 to 80
CCOC(=O)c1cnc2c(c1)C(=O)C=CC2=O	124
O=C(Nc1ccccc1)NC1C(=O)N(CC2C3CC4CC(C3)CC2C4)c2ccccc2N(c2ccccc2)C1=O (configuration not stated)	192 to 193
O=C1CCCN2N=C(c3ccc(Br)cc3)SC2=N1	204 to 207

Reference: a melting point compilation (Tetko et al.; mined from patent text by program, amines drawn as free bases though some values may be those of a salt)
